Reference: patent publication US9353132B2, “Boron-based 4-hydroxytamoxifen and endoxifen prodrugs as treatment for breast cancer” (XAVIER UNIVERSITY OF LOUISIANA, priority 2012, dated 2016)

What was measured:
[1] = tested on: estrogen-dependent cell proliferation; conditions: cited from earlier work
[2] = tested on: T47D cells; test: Cell survival/growth inhibition assay in ER+ T47D breast cancer cells; type: cell-based; conditions: for inhibition at 1 µM / inhibition at 0.1 µM: T47D; for IC50: dose-response, T47D cells
Source text: The T47D cell line is also an ER positive control cell line.
To test if the prodrugs can inhibit growth in another breast cancer cell line that also expresses the estrogen receptor, T47D cells were used.

[3] = tested on: MCF-7 cells; test: Cell survival/growth inhibition assay in ER+ MCF-7 breast cancer cells; type: cell-based, human; conditions: for inhibition at 1 µM / inhibition at 0.1 µM: MCF7
Source text: MCF-7 is a human breast adenocarcinoma cell line commonly accepted in the art as useful for in vitro breast cancer studies because it has retained several ideal characteristics particular to mammary epithelium. These characteristics include the ability to process estrogen (in the form of estradiol) via estrogen receptors in the cell cytoplasm. This makes the MCF-7 cell line an estrogen receptor (ER) positive control cell line.
To test if the prodrugs inhibit breast cancer cell growth and proliferation, cell survival assays were conducted.

[4] = Kinetic stability of prodrug (conversion to 4-OHT) in MCF-7 cell culture; type: in vitro ADME, human; conditions: human, MCF-7 cell culture; 0 to 144 hours, regression of prodrug concentration relative to 4-OHT
Description: (§1) A kinetic study on the stability of the prodrugs was performed. In the study, the relative concentration of a prodrug to 4-OHT was determined at different time points that ranged from 0 hour to 144 hours (6 days).

[5] = tested on: MCF-7 cells; test: Oxidative conversion of prodrug to 4-OHT in media after incubation with MCF-7 cells (HPLC-MS/MS); type: in vitro ADME, human; conditions: LC-MS/MS
Description: (§2) To determine if the actions of the prodrugs are by means of biotransformation into the compound 4-hydroxytamoxifen, we analyzed the concentrations of the prodrugs and 4-hydroxytamoxifen in the media containing breast cancer cells using an HPLC-MS/MS technique.
(§3) Using HPLC coupled to a linear trap mass spectrometer, the prodrugs and their active product, 4-OHT were separated, identified, and quantified.
(§4) The relative peak areas were measured at 30.4% for prodrug 3 and 69.6% for 4-OHT (FIG. 5 panel A).

[6] = tested on: T47D cells; test: Oxidative conversion of prodrug to 4-OHT in media after incubation with T47D cells (HPLC-MS/MS); type: in vitro ADME; conditions: LC-MS/MS
Description: as §2, §3, §4

[7] = tested on: MCF-7 cell culture; test: Kinetic stability of prodrug (conversion to 4-OHT) in MCF-7 cell culture; type: in vitro ADME, human; conditions: 0 to 144 hours, regression of prodrug concentration relative to 4-OHT
Description: as §1

[8] = Homo sapiens, MCF7, dose-response, MCF-7 cells

Compound | inhibition at 1 µM ([2]; Homo sapiens, 10^−6 M) [%] | inhibition at 0.1 µM ([2]; Homo sapiens, 10^−7 M) [%] | IC50 ([2]; Homo sapiens) [nM] | IC50 [3, 8] [nM] | growth inhibition of T47D cells ([2]; 10^−6 M) [%] | inhibition at 1 µM ([3]; Homo sapiens, 10^−6 M) [%] | inhibition at 0.1 µM ([3]; Homo sapiens, 10^−7 M) [%] | half-life [4] [h] | other results
4-hydroxytamoxifen [Prodrug 4-OHT] | – | – | – | – | – | – | – | – | potency relative to tamoxifen in inhibiting estrogen-dependent cell proliferation [1]: 30- to 100 fold
CCC(=C(c1ccc(OCCNC)cc1)c1ccc(B(O)O)cc1)c1ccccc1 [Prodrug 11, (4-(1-(4-(2-(Methylamino)ethoxy)phenyl)-2-phenylbut-1-en-1-yl)phenyl)boronic acid] | 53 | 40 | 189 | 25.5 | – | – | – | – | anti-proliferative efficacy compared to tamoxifen ([3]; MCF-7 cells): greater anti-proliferative efficacy than tamoxifen
CC/C(=C(\c1ccccc1)c1ccc(OCCN(C)C)cc1)c1ccccc1 [Tamoxifen] | 46 | 39 | – | – | 48 | 52 | 18 | – | –
CCC(=C(c1ccc(OCCN(C)C)cc1)c1ccc(B2OC(C)(C)C(C)(C)O2)cc1)c1ccccc1 [Prodrug 1, N,N-Dimethyl-2-(4-(2-phenyl-1-(4-(4,4,5,5-tetramethyl-1,3,2-dioxaborolan-2-yl)phenyl)but-1-en-1-yl)phenoxy)ethanamine] | 60 | 42 | 144 | 150 | – | 63 | 52 | 89 | IC50 relative to tamoxifen ([3]; cell line not given, values match MCF-7): about 5 times lower; IC50 ([3]; dose-response, MCF-7 cells, listed as Boron-4-OHT Prodrug (1)): 148 nM
CCC(=C(c1ccc(OCCN(C)C)cc1)c1ccc(B(O)O)cc1)c1ccccc1 [Prodrug 3, (4-(1-(4-(2-(Dimethylamino)ethoxy)phenyl)-2-phenylbut-1-en-1-yl)phenyl)boronic acid] | 54 | 44 | 228 | 42 | – | 75 | 51 | 96 | relative peak area of remaining prodrug [5]: 30.4%; % peak area of remaining prodrug [6]: 20.9%
CCC(=C(c1ccc(OCCN(C)C)cc1)c1ccc([B-](F)(F)F)cc1)c1ccccc1.[K+] [Prodrug 2, Potassium (4-(1-(4-(2-(dimethylamino)ethoxy)phenyl)-2-phenylbut-1-en-1-yl)phenyl)trifluoro boronate] | – | – | – | – | 50 | – | – | – | growth inhibition of T47D cells ([2]; 10^−7 M): 38%; IC50 [2]: 260 nM; growth inhibition of MCF-7 cells ([3]; 10^−6 M): 76%; growth inhibition of MCF-7 cells ([3]; 10^−7 M): 59%; IC50 ([3]; dose-response, MCF-7 cells): 6.3 nM; IC50 ([3]; dose-response, MCF-7 cells, listed as Boron-4-OHT Prodrug (2)): 6.26 nM; % peak area of 4-OHT formed from prodrug [5]: 81.6%; half-life of prodrug (conversion to 4-OHT) [7]: 84 h; % peak area of 4-OHT formed from prodrug (transformed into 4-OHT) [6]: 86.3%
